For orientation: solubility means the concentration that dissolves in the medium under given conditions.

Consider one compound from patent publication US20250129062A1, “AMORPHOUS SUBSTANCES, CRYSTALS, PHARMACEUTICAL COMPOSITIONS, PREPARATION METHODS AND USES OF THIOHYDANTOIN COMPOUND OR PHARMACEUTICALLY ACCEPTABLE SALT THEREOF” (SUZHOU KINTOR PHARMACEUTICALS, INC., priority 2021, published 2025).

Data set [1] can be described thus: Solubility of amorphous substance in solvent systems (supersaturated solution, oscillated 24 h at room temperature, HPLC). The class given is physicochemical. The settings on record: dehydrated alcohol 50%: water 50% (w/w), aqueous with cosolvent or surfactant or cyclodextrin, thermodynamic from solid, Dehydrated alcohol 50%: water 50% (w/w); read-out: 24 h solubility. The method, then: The amorphous substance of the compound of formula I was prepared into supersaturated solutions with different solvents, and oscillated under a room temperature condition (a constant temperature). After oscillating for 24 h, sampling was performed, and the content of the sample was detected by HPLC under condition 1.
Condition 1: • Chromatographic column: C18 (150 mm×4.6 mm×3.5 μm); • Mobile phase: binary mobile phase system, mobile phase A was 0.1% formic acid in water, mobile phase B was acetonitrile; • Elution time: 68 min; • Elution mode: gradient elution (in the gradient elution process, mobile phase A had the maximum volume percentage of 95% and the minimum volume percentage of 10%); • Detection wavelength: 270 nm.

A short description of data set [2]: Distribution of compound in sebaceous glands and blood of golden hamsters after single skin application. The data set is classed as in vivo. As to conditions: for Concentration in sebaceous glands / concentration at 8 h: 8 h. On the procedure: 6 male golden hamsters were selected for the experiment, and randomly divided evenly into 2 groups, with three golden hamsters per group. All animals were fasted overnight before administration, and were administered via a route of single application. Sampling was performed at specific time points after administration. Specific information on animal grouping, administration, sampling, etc. were detailed in Table 6.
The amorphous substance of the compound of formula I was weighed and placed in a 50 mL centrifugal tube. A mixed solvent (consisting of 75% v/v ethanol, 15% v/v glyceryl tri (2-ethylhexanoate) and 10% v/v glycerin) was added. After vortexing, heating was performed at 60° C. until the amorphous substance of the compound of formula I was completely dissolved. The amorphous substances of the compound of formula I in the two groups were prepared at 30 mg/mL and 100 mg/mL, respectively, and stored at room temperature in the dark.
After administration, blood was collected into blood collection tubes containing a heparin sodium anticoagulant at corresponding time points. Immediately after collection of whole blood, the blood collection tubes were gently shaken and placed on ice, and then centrifuged (4° C., 4000 rpm, 10 min). The supernatant plasma samples (plasma volume ≥100 μL) were collected, and stored in a refrigerator at about −80° C. The plasma samples were collected for 8 h for analysis.

“And” between values parts separate entries of the source, which are not always exact repeats. Identical values can stand only once. Like-named read-outs stand apart in the source and are kept apart here.

Regarding `Cc1ncsc1-c1ccc(CNC(=O)[C@@H]2C[C@@H](O)CN2C(=O)[C@@H](NC(=O)COCCCCOc2ccc(-c3ccc(N4C(=S)N(c5ccc(C#N)c(C(F)(F)F)c5F)C(=O)C4(C)C)cn3)cc2)C(C)(C)C)cc1` [compound of formula I], the solubility at 24 h in data set [1] was determined as 6.44 mg/mL. For the same compound, the “Concentration in sebaceous glands” value in data set [2] (Left sebaceous gland, dose 1.2 mg, individual animals No. 1-3) is 10.9 µg/mL and 20.4 µg/mL and 7.01 µg/mL; in data set [2] (Left sebaceous gland, dose 4 mg, individual animals No. 4-6) it was 57.1 µg/mL and 15 µg/mL and 8.34 µg/mL; in data set [2] (Right sebaceous gland, dose 1.2 mg, individual animals No. 1-3), 17.9 µg/mL and 15.7 µg/mL; in data set [2] (Right sebaceous gland, dose 4 mg, individual animals No. 4-6), 19.9 µg/mL and 18.4 µg/mL. In addition, the “distribution between sebaceous glands and blood after skin application” value in data set [2] (golden hamsters, administration via skin application) is “can enter sebaceous glands, but cannot enter blood”. The “maximum blood drug concentration” value in data set [2] (group 2, dose 4 mg, over sampling time points 0.25, 0.5, 1, 2, 4, 6 and 8 h) turned out to be 10.6 ng/mL. The “Concentration of compound of formula I in plasma” value was 0.0106 µg/mL in data set [2] (male golden hamsters, skin application 4 mg, 2 h, individual animals No. 4, 5, 6) and 0.00442 µg/mL in data set [2] (male golden hamsters, skin application 4 mg, 4 h, individual animals No. 4, 5, 6). Moreover, the concentration at 0.5 h in data set [2] (male, hamster, plasma, topical, 4 mg, male golden hamsters, skin application 4 mg, 0.5 h, individual animals No. 4, 5, 6, read-out: Concentration of compound of formula I in plasma) is less than 0 µg/mL. In addition, the concentration at 1 h in data set [2] (male, hamster, plasma, topical, 4 mg, male golden hamsters, skin application 4 mg, 1 h, individual animals No. 4, 5, 6, read-out: Concentration of compound of formula I in plasma) was less than 0 µg/mL. Moreover, the concentration at 2 h in data set [2] (male, hamster, plasma, topical, 4 mg, male golden hamsters, skin application 4 mg, 2 h, read-out: Concentration of compound of formula I in plasma, Mean) turned out to be 0.011 µg/mL. Also, the concentration at 4 h in data set [2] (male, hamster, plasma, topical, 4 mg, male golden hamsters, skin application 4 mg, 4 h, read-out: Concentration of compound of formula I in plasma, Mean) was 0.004 µg/mL. The concentration at 8 h in data set [2] (male, hamster, right sebaceous gland, topical, 1.2 mg, Right sebaceous gland, dose 1.2 mg, individual animals No. 1-3, read-out: Concentration in sebaceous glands) amounted to 9.17 µg/mL; in data set [2] (male, hamster, right sebaceous gland, topical, 4 mg, Right sebaceous gland, dose 4 mg, individual animals No. 4-6, read-out: Concentration in sebaceous glands), 26.6 µg/mL; in data set [2] (male, hamster, sebaceous glands (left and right), topical, 1.2 mg, left and right sebaceous glands, dose 1.2 mg, read-out: Concentration mean in sebaceous glands), 13.5 µg/mL; in data set [2] (male, hamster, sebaceous glands (left and right), topical, 4 mg, left and right sebaceous glands, dose 4 mg, read-out: Concentration mean in sebaceous glands), 24.2 µg/mL.
